In patent publication USRE38551E1, “Anticonvulsant enantiomeric amino acid derivatives” (priority 1996, dated 2004):

Columns and labels:
[1] = rotorod neurologic toxicity test, mice (ip); assay type: in vivo; settings: male, Carthworth Farms No. 1, in vivo, ip; mouse, i.p., rotorod test at peak effect (Table 6); read-out: MOUSE ED50 Neurotox
From the text: (§1) Compounds were screened for anticonvulsant activity in both male albino Carthworth Farms No. 1 mice (ip route) and male albino Sprague Dawley rats [oral (po) route]. Activity was established using the electrical (maximal electroshock or MES) test. In the MES test, a drop of electrolyte solution with anesthetic (0.5% butacaine hemisulfate in 0.9% sodium chloride) was used in the eyes of the animals prior to positioning the corneal electrodes and delivery of current. […] Protection endpoints were defined as the abolition of the hind limb tonic extensor component of the induced seizure. In mice, effects of compounds on forced spontaneous motor activity were determined using the rotorod test. […] Normally under these conditions, mice maintain their balance almost indefinitely. In rats, motor impairment is assessed by observing for overt evidence of ataxia, abnormal gait and stance, and/or loss of placing response and muscle tone. In the mouse identification screening study all compounds were given at three dose levels (30, 100, 300 mg/kg) and two time periods (0.5 hours, 4 hours). Typically, in the MES seizures test one animal was tested at 30 mg/kg and 300 mg/kg, and three animals at 100 mg/kg. In the rotored toxicity test four animals were tested at 30 mg/kg, and 300 mg/kg, and eight animals at 100 mg/kg.
(§2) The quantitative determination of the median effective (ED50) and toxic doses (TD50) was conducted at previously calculated times of peak effect. Groups of at least eight animals were tested using different doses of test compound until at least two points wee determined between 100 and 0% protection and minimal motor impairment. The dose of candidate substance required to produce the defined end-point in 50% of the animals in each test and the 95% confidence interval was calculated.

[2] = tested on: motor impairment (rotorod test); experiment: rotorod neurologic toxicity test, mice (ip); assay type: in vivo; settings: mice, ip, rotorod test, at time of peak effect
From the text: as §1, §2

[3] = target: p-nitroanisole O-demethylase; experiment: in vitro p-nitroanisole O-demethylase inhibition; assay type: biochemical; settings: listed as Compound A, read-out: I50, in vitro p-nitroanisole O-demethylase activity
From the text: This interpretation is supported by the similar effectiveness of Compound A by the MES test, the increased hexobarbital sleep time, and the unaltered liver microsomal enzyme activity. In view of the increased hexobarbital sleep time in the 5-day treated animals, it was thought important to determine the in vitro effect of Compound A on p-nitroanisole O-demethylase activity. […] This may indicate that the potentiation of hexobarbital sleep time is central and not peripheral.

[4] = tested on: hexobarbital sleep time; experiment: hexobarbital sleep time test; assay type: in vivo; settings: rats
Procedure: All rats subjected to the 5-day tolerance studies were maintained in their home cage for 24 hours and then subjected to the hexobarbital sleep time test (day 6). Each rat in each of the 3 groups was given 100 mg/kg of hexobarbital (i.p.) and the sleep time measured to the nearest minute. The mean sleep time and S.E. for each group were calculated.

[5] = motor impairment (ataxia, gait, stance) observation, rats (po); assay type: in vivo; settings: male, Sprague Dawley, in vivo, rat
From the text: Compounds were screened for anticonvulsant activity in both male albino Carthworth Farms No. 1 mice (ip route) and male albino Sprague Dawley rats [oral (po) route]. Activity was established using the electrical (maximal electroshock or MES) test. In the MES test, a drop of electrolyte solution with anesthetic (0.5% butacaine hemisulfate in 0.9% sodium chloride) was used in the eyes of the animals prior to positioning the corneal electrodes and delivery of current. A 60 cycle alternating current was administered for 0.2 sec. in both species, 50 mA in mice and 150 mA in rats. Protection endpoints were defined as the abolition of the hind limb tonic extensor component of the induced seizure. In mice, effects of compounds on forced spontaneous motor activity were determined using the rotorod test. […] Normally under these conditions, mice maintain their balance almost indefinitely. In rats, motor impairment is assessed by observing for overt evidence of ataxia, abnormal gait and stance, and/or loss of placing response and muscle tone. In the mouse identification screening study all compounds were given at three dose levels (30, 100, 300 mg/kg) and two time periods (0.5 hours, 4 hours). Typically, in the MES seizures test one animal was tested at 30 mg/kg and 300 mg/kg, and three animals at 100 mg/kg. In the rotored toxicity test four animals were tested at 30 mg/kg, and 300 mg/kg, and eight animals at 100 mg/kg.
as §2

In the case of `CC(=O)NC(C)C(=O)NCc1ccccc1` (racemic) [compound 1, N-Acetyl-D,L-alanine-N′-benzylamide], the ED50 [1] is reported as 454 mg/kg, the “tox, TD50” value [2] is reported as 454 [0.5] mg/kg and the IC50 [3] is reported as 5 mM. The hexobarbital sleep time ([4]; 5-day treated (48 mg/kg)) was 44.4 ± 1.9 min, the hexobarbital sleep time ([4]; acute control (single dose 48 mg/kg)) was 34.3 ± 1.1 min and the ED50 ([5]; oral (Table 6), read-out: RAT ED50 Neurotox) was greater than 1000 mg/kg. The TD50 ([5]; po, at time of peak effect, read-out: tox, TD50) was greater than 1000 mg/kg.
